Results on three molecules are retold here after patent publication US7498406B2, “Substantially cell membrane impermeable compound and use thereof” (priority 1999, dated 2009).

The target in data set [1] is T1, Thioredoxin (Homo sapiens, UniProt P10599).
T1 construct: purchased American Diagnostica, Greenwich, Conn; host or cells: E. coli
In words: GSAO-B labelling of purified protein, streptavidin-peroxidase blot. The following applies: 100 μM GSAO-B, 5 μM protein, 30 minutes. The data set is classed as binding. The method, then:
(§1) FIG. 14. Interaction of GSAO-B with PDI and thioredoxin. A Structure of GSAO-B. B Purified human recombinant PDI (5 μM), human recombinant thioredoxin (5 μM) or bovine serum albumin (5 ? M) was incubated with dithiothreitol (10 μM) for 60 minutes at room temperature to ensure that the active site disulfide(s) of PDI and thioredoxin were in the reduced dithiol form. GSAO-B (100 ? M) or GSAO-B and DMP (400 μM) was then added and the reactions incubated for 30 minutes at room temperature. The labelled PDI (lanes 1 and 2), thioredoxin (lanes 3 and 4) and albumin (lane 5) (75 pmoles) was resolved on […] SDS-PAGE, transferred to PVDF membrane, and blotted with streptavidin-peroxidase to detect the GSAO-B label. The positions of Mr markers are shown at left.
(§2) Human recombinant PDI and thioredoxin bound GSAO-B (FIG. 14). Recombinant human protein disulfide isomerase (PDI) was produced in E. coli and purified according to Jiang et al. (1999). In the experiment, purified PDI, thioredoxin or albumin as negative control were incubated with a 2-fold molar excess of dithiothreitol for 60 minutes to ensure that the active site disulfides of PDI and thioredoxin were in the reduced dithiol state. The proteins were then incubated with GSAO-B or GSAO-B and a 4-fold molar excess of DMP for 30 minutes. Equivalent moles of the labeled proteins were resolved on SDS-PAGE, transferred to PVDF membrane, and blotted with streptavidin-peroxidase to detect the GSAO-B label. Samples were resolved on 4-15% SDS-PAGE under non-reducing conditions (Laemmli, 1970) and transferred to PVDF membrane. Proteins were detected by Western blot using an anti-PDI murine monoclonal antibody (Jiang et al., 1999) (used at 2 μg per mL). Rabbit anti-mouse horseradish peroxidase conjugated antibodies (Dako Corporation, Carpinteria, Calif.) were used at 1:2000 dilution. GSAO-B-labeled proteins were blotted with streptavidin peroxidase (Amersham, Sydney, NSW) used at 1:1000 dilution. […] Chemiluminescence films were analysed using a GS-700 Imaging Densitometer and Multi-Analyst software (Bio-Rad, Hercules, Calif.).

Data set [2] concerns the target T2, human recombinant PDI (Homo sapiens, UniProt P07237).
T2 construct: made in house; host or cells: E. coli
The description is as above. The data set is classed as binding. Here is the method: as §1, §2

Data set [3] addresses bovine serum albumin (Bos taurus, UniProt P02769). In words: GSAO-B labelling of purified protein, streptavidin-peroxidase blot (negative control protein). The following applies: 100 μM GSAO-B, 5 μM protein, 30 minutes. The data set is classed as binding. Here is the method:
as §1
Human recombinant PDI and thioredoxin bound GSAO-B (FIG. 14). Recombinant human protein disulfide isomerase (PDI) was produced in E. coli and purified according to Jiang et al. (1999). […] Proteins were detected by Western blot using an anti-PDI murine monoclonal antibody (Jiang et al., 1999) (used at 2 μg per mL). […] Chemiluminescence films were analysed using a GS-700 Imaging Densitometer and Multi-Analyst software (Bio-Rad, Hercules, Calif.).

For data set [4], the system named is HMEC-1 or HUVE cells. In words: GSAO-B labelling of endothelial cell surface proteins. The data set is classed as cell-based, human. The method, then: FIG. 16. Identification of endothelial cell surface proteins that contain closely spaced dithiols). A The surface of HMEC-1 or HUVE cells (2×10^6 cells in 0.4 mL) was labelled with GSAO-B (100 μM) for 30 minutes at room temperature in the absence (lanes 1 and 3) or presence of DMP (400 μM) (lane 2). The endothelial cells were lysed and the lysate from both incubations was resolved on 4-15% SDS-PAGE, transferred to PVDF membrane, and blotted with streptavidin peroxidase to detect the GSAO-B label. The results represent labelling of 3×10^4 HMEC-1 (lanes 1 and 2) of HUVE cells (lane 3). The positions of Mr markers are shown at left. B Densitometry profile of the surface labelled proteins (lanes 1 and 3). The apparent Mr's of the individual proteins are indicated.
Human umbilical vein endothelial cells (HUVEC) (Wall et al., 1978) and the human dermal microvascular endothelial cell line, HMEC-1 (Ades et al., 1992), were harvested and cultured as indicated. Endothelial cells (5×10^6) were detached from culture flasks using 5 mM EDTA in PBS at 37° C., washed 3 times with PBS, resuspended in PBS containing 100 μM of GSAO-B in the absence or presence of 400 μM DMP, and incubated for 30 minutes at room temperature. The cells were washed 3 times with 1 mL of PBS, resuspended in 0.2 mL of ice cold 50 mM Tris/HCl, pH 8 buffer containing 0.5 M NaCl, 1% Triton X-100, 10 μM leupeptin, 2 mM PMSF (Sigma Chemical Company, St, Louis, Mo.), 5 mM EDTA and 10 μM aprotinin (Bayer Australia Ltd., Sydney, NSW), and sonicated on ice. On some occasions the cell lysates were incubated with streptavidin-agarose (Sigma, Castle Hill, NSW) beads (25 μL of packed beads in a total volume of 1 mL) for 60 minutes at 4° C. with rotary mixing. Bound proteins were washed 5 times with 50 mM Tris/HCl, pH 8 buffer containing 0.15 M NaCl and 0.05% Triton X-100, resolved on SDS-PAGE, transferred to PVDF membrane, and the GSAO-B-labeled proteins detected by Western blot.

Data set [5] deals with PDI. In words: GSAO-B labelling of PDI on the endothelial cell surface. The data set is classed as cell-based. The following applies: 100 μM GSAO-B, 30 minutes. Here is the method:
FIG. 17. PDI was one of the GSAO-B labelled proteins on the endothelial cell surface. HUVEC (5×10^6 cells in 0.75 mL) were labelled with GSAO-B (100 μM) for 30 minutes at 37° C. in the absence (lanes 1) or presence of DMP (400 μM) (lane 2). The cells were lysed and incubated with streptavidin-agarose beads to collect the biotin-labelled proteins. The labelled proteins were resolved on 4-15% SDS-PAGE, transferred to PVDF membrane, and blotted with anti-PDI monoclonal antibodies. The results represent labelling of 5×10^6 endothelial cells. The positions of Mr markers are shown at left.
BAE cells were labeled with GSAO-B in the absence or presence of DMP, lysed and incubated with streptavidin-agarose beads to collect the biotin-labeled proteins. The labeled proteins were eluted from the beads, resolved on SDS-PAGE, transferred to PVDF membrane, and blotted with anti-PDI polyclonal antibodies.

In data set [6] the target is T3, cell surface CD4 (Homo sapiens, UniProt P01730).
T3 construct: host or cells: CEM-T4
Put plainly: Labelling of cell surface CD4 on CEM-T4 cells. The following applies: 100 μM, 30 min. The data set is classed as cell-based. Here is the method:
FIG. 32. Labelling of cell surface CD4 with GSAO-B. CEM-T4 were labelled with either MPB or GSAO-B. The biotin-labelled proteins were collected on streptavidin-agarose beads, resolved on 5-15% SDS-PAGE and Western blotted using Leu3a monoclonal antibody. Lane 1 is MPB-labelled CEM-T4 CD4 and lane 2 is GSAO-B-labelled CEM-T4 CD04. Lane 3 is a control experiment where GSAO-B was incubated with CEM-T4 cells in the presence of 400 μM DMP. Biotin-labelled proteins were from 2×10^6 cells. The positions of Mr markers in kDa are shown at left.
CEM-T4 cells were obtained from the NIH AIDS Research and Reference Reagent Program, Rockville, Mass., CEM-T4 (1 mL of 5×10^6 per mL in Hanks balanced salt solution) were incubated with either sulfosuccinimidobiotin (SSB), 3-(N-maleimidylpropionyl)biocytin (MPB), or GSAO-B (100 μM) for 30 min at room temperature SSB was from Pierce, Rockford, Ill. while MPB was from Molecular Probes, Eugene, Oreg.. Unreacted SSB was quenched with glycine (200 μM), while unreacted MPB was quenched with reduced glutathione (GSH, 200 μM) for 30 min at room temperature. The labelled cells were washed twice with PBS and sonicated in 1 mL of 50 mM Tris-HCl, 0.5 M NaCl, 1% (v/v) Triton X-100, 10 μM leupeptin, 10 μM aprotinin, 2 mM phenylmethylsulfonyl fluoride, 5 mM EDTA, pH 8.0 buffer at 4° C. […]
Labelled CD4 was detected by blotting with the Leu3a monoclonal antibody (FIG. 32).

A short description of data set [7]: Stability of the trivalent arsenicals towards oxidation. The data set is classed as physicochemical. The following applies: slowed by removal of O2, lower pH or glycine. From the text: This oxidation can be slowed in three ways; removal of dissolved O2 from solutions containing the arsenoxides, lowering the pH of these solutions, or by addition of glycine to the solutions. Glycine is routinely used to prevent oxidation of the stock solutions of the trivalent organoarsenicals. Similar to the reaction between 2,3-dimercaptopropanol and R—As(OH)2 in which a 5-membered dithioarsonite (XI) is formed, reaction of glycine with R—As(OH)2 is thought to give a 5-membered cyclic 1,3,2-oxazarsolidin-5-one (XII).

Data set [8] concerns HIVIIIB. In words: HIVIIIB entry into / infection of A3.01 cells, p24 antigen. The data set is classed as cell-based, HIV. The following applies: 100 μM, 30 minutes before virus. Here is the method: FIG. 33. […] Cells were washed and incubated in complete medium at 5% CO2 and 37° C. for up to 10 days. […] B Concentration dependence of GSAO. […] Cells were washed, incubated in complete medium at 5% CO2 and 37° C. for 3 days and the conditioned medium collected and assayed for p24 antigen.
FIG. 34. Inhibition of HIVIIIB infection of A3.01 cells by GSAO.
A3.01 human T cells were exposed to GSAO for 30 minutes and then to HTLVIIIB virus for 2 hours after which the cells were washed and then cultured for up to 10 days. HTLVIIIB and A3.01 cells were obtained from the NIH AIDS Research and Reference Reagent Program, Rockville, Mass. Virus stocks were made and infectivity titer determined using A3.01 cells and the p24 antigen assay (Coulter, Miami, Fla.). A3.01 cells were cultured in RPMI medium containing 10% fetal calf serum. […] Cell numbers and cell viability were determined at the times specified by staining cells with trypan blue and counting using a Neubauer haemacytometer. Cell viability was measured as a percentage of live cells to total cells.

T2 sequence (P07237 18-508): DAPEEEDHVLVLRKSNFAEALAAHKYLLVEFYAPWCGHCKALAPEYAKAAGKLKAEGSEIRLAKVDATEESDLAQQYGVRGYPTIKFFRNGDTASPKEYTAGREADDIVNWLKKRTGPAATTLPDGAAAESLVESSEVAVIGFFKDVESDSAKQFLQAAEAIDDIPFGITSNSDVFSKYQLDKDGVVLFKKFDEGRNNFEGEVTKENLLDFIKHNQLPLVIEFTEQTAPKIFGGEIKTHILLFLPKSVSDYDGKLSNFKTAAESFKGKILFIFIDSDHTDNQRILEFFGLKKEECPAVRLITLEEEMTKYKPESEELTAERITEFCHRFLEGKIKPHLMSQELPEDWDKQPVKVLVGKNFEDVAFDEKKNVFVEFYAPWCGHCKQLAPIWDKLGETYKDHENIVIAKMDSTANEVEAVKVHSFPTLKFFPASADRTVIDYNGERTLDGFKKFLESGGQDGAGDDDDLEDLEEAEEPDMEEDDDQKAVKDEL
Sequence of bovine serum albumin (P02769 25-607): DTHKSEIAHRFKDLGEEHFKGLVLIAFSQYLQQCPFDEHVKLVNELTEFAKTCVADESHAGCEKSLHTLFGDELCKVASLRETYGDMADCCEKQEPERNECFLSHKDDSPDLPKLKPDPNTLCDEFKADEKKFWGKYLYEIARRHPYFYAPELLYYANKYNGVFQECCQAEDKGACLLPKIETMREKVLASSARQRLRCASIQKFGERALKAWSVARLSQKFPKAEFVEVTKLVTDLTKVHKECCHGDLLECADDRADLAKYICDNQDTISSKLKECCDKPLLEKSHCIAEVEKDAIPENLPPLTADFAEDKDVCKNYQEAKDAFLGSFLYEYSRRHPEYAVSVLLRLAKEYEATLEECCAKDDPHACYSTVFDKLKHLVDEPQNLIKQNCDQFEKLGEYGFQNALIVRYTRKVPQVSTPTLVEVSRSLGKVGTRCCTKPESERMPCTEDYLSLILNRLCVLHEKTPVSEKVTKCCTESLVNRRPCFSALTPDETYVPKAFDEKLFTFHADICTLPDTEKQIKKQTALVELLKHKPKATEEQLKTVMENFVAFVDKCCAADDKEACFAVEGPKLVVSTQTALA
T1 sequence (P10599 whole entry): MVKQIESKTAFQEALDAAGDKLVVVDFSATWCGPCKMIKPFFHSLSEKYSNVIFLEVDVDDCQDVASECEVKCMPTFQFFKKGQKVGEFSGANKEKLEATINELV

For the molecule “4-(N-(S-(N-(6-(N-(6-(N-(biotinoyl)amino)hexanoyl)amino)hexanoyl)glutathionyl)acetyl)amino)phenylarsenoxide [GSAO-B]”, the “incorporation of GSAO-B label” value in data set [1] is “incorporated GSAO-B”; in data set [2] (100 μM GSAO-B, 5 μM protein, 30 minutes) it was “incorporated GSAO-B”; in data set [3], “albumin did not”. For the same molecule, the “density of labeling of PDI relative to thioredoxin” value in data set [2] (equivalent moles of protein) was “approximately twice that of thioredoxin”. Also, the “incorporation in the presence of DMP” value in data set [4] (100 μM GSAO-B with 400 μM DMP) is “effectively no incorporation of GSAO-B in the presence of DMP”. Further, the “proteins on the endothelial cell surface that bind the compound” value in data set [4] (100 μM, 30 minutes) is “approximately ten proteins”. Moreover, in data set [5], the “labelling of cell surface PDI” value is on record as “PDI was one of the proteins on the endothelial cell surface that incorporated GSAO-B”. Also, the “labelling of T cell surface CD4” value in data set [6] was “incorporated GSAO-B”.

For `O=[As]c1ccc(NC(=O)CBr)cc1` (stereo not shown) [BRAO, 4-(N-(bromoacetyl)amino)-phenylarsenoxide], in data set [7], the “stability of solutions towards oxidation” value is “deactivated over time by oxidation”.

Regarding `O=C(CCCC[C@@H]1SC[C@@H]2NC(=O)N[C@@H]21)NCCCC[C@H](NC(=O)CCN1C(=O)C=CC1=O)C(=O)O` [MPB, 3-(N-maleimidylpropionyl)biocytin, reference compound], the “inhibition of HIVIIIB entry” value in data set [8] is “Inhibition of HIVIIIB entry”.
